Columns and labels:
[1] = Solubility in hexane; type: physicochemical
Method: Next, 13.5 mg of 5,7,12,14-tetrakis(2-(triethylsilyl)ethyl)pentacene-6,13-dione was added to 51.6 mg of hexane at 22° C., and allowed to completely dissolve.
Next, 9.3 mg of a 1:1 mixture of 4,6,10,12-tetrakis(2-(triethylsilyl)ethyl)anthra[2,3-b : 6,7-b′]dithiophene-5,11-dione and 4,6,10,12-tetrakis(2-(triethylsilyl)ethyl)anthra[2,3-b:7,6-b′]dithiophene-5,11-dione was added to 180.1 mg of hexane at 26° C., and allowed to completely dissolve. The solubility in hexane was 5 wt %.

In the case of `CC[Si](CC)(CC)CCc1c2c(c(CC[Si](CC)(CC)CC)c3ccccc13)C(=O)c1c(c(CC[Si](CC)(CC)CC)c3ccccc3c1CC[Si](CC)(CC)CC)C2=O` [5,7,12,14-tetrakis(2-(triethylsilyl)ethyl)pentacene-6,13-dione], the solubility in hexane [1] is reported as 26 wt % and the melting point is reported as 171 to 171.5 °C.

From US20120012822A1, “AROMATIC COMPOUND AND METHOD FOR PRODUCING SAME” (KEIO UNIVERSITY, priority 2009, published 2012)
